Reference: ChEMBL document CHEMBL4033618, “Covalently linked kanamycin - Ciprofloxacin hybrid antibiotics as a tool to fight bacterial resistance” (Bioorg Med Chem, 2017)
Values after ≈ are worked out from the molar mass of the structure shown. Active and inactive are the calls of the source. No cut-off for these calls is given here.

Columns and labels:
[1] = Inhibition of Escherichia coli topoisomerase 4 using supercoiled pBR322 DNA as substrate by agarose gel electrophorosis method
Bacillus spizizenii [2] = test: Antibacterial activity against Bacillus subtilis ATCC 6633 in 15th subculture in presence of equimolar concentration of kanamycin A by double microdilution method; format: functional
[3] = system: Staphylococcus epidermidis; test: Antibacterial activity against aminoglycosides-susceptible Staphylococcus epidermidis by double microdilution method; format: functional
Escherichia coli [4] = test: Inhibition of protein translation in Escherichia coli S30 cell extract using circular DNA with pBESTluc after 60 mins; format: functional
[5] = Inhibition of Escherichia coli DNA gyrase using relaxed pBR322 DNA as substrate by agarose gel electrophorosis method
Escherichia coli [6] = test: Antibacterial activity against kanamycin-resistant Escherichia coli AG100A by double microdilution method; format: functional
Bacillus subtilis = test: Antibacterial activity against aminoglycosides-susceptible Bacillus subtilis by double microdilution method; format: functional
Escherichia coli [7] = test: Ratio of MIC for aminoglycosides-resistant Escherichia coli BL21 harboring pET11d encode for APH(3')-2b resistance enzyme to MIC for Escherichia coli BL21; format: functional
Escherichia coli [8] = test: Ratio of MIC for aminoglycosides-resistant Escherichia coli BL21 harboring pETSACG1 encode for APH(3')-3a resistance enzyme to MIC for Escherichia coli BL21; format: functional
Escherichia coli [9] = test: Antibacterial activity against aminoglycosides-susceptible Escherichia coli 25922 by double microdilution method; format: functional; details: ATCC 25922
Escherichia coli [10] = test: Resistance index, ratio of MIC for Escherichia coli ATCC 35218 in 15th subculture to MIC for Escherichia coli ATCC 35218 in first subculture; format: functional
Escherichia coli [11] = test: Antibacterial activity against Escherichia coli ATCC 35218 in 15th subculture in presence of equimolar concentration of ciprofloxacin by double microdilution method; format: functional
Escherichia coli [12] = test: Antibacterial activity against aminoglycosides-resistant Escherichia coli BL21 harboring pET11d encode for APH(3')-2b resistance enzyme by double microdilution method; format: functional
Escherichia coli [13] = test: Ratio of MIC for aminoglycosides-resistant Escherichia coli BL21 harboring pSF815 encode for bifunctional AAC(6')/APH(2\") resistance enzyme to MIC for Escherichia coli BL21; format: functional
Escherichia coli [14] = test: Antibacterial activity against aminoglycosides-resistant Escherichia coli BL21 harboring pSF815 encode for bifunctional AAC(6')/APH(2\") resistance enzyme by double microdilution method; format: functional
Escherichia coli [15] = test: Antibacterial activity against aminoglycosides-susceptible Escherichia coli R477-100 by double microdilution method; format: functional
[16] = Acute toxicity in iv dosed mouse at pH 6.6 administered for 4 days; format: organism-based; details: in vivo
Escherichia coli [17] = test: Antibacterial activity against aminoglycosides-resistant Escherichia coli BL21 harboring pETSACG1 encode for APH(3')-3a resistance enzyme by double microdilution method; format: functional
Escherichia coli [18] = test: Antibacterial activity against kanamycin-resistant Escherichia coli AG100B by double microdilution method; format: functional
Escherichia coli [19] = test: Ratio of MIC for Escherichia coli XL1 blue harboring pET9d encode for APH(3')-1a resistance enzyme to MIC for Escherichia coli XL1 blue; format: functional
Escherichia coli [20] = test: Antibacterial activity against Escherichia coli XL1 blue by double microdilution method; format: functional
Bacillus spizizenii [21] = test: Resistance index, ratio of MIC for Bacillus subtilis ATCC 6633 in 15th subculture to MIC for Bacillus subtilis ATCC 6633 in first subculture; format: functional
Bacillus spizizenii [22] = test: Antibacterial activity against Bacillus subtilis ATCC 6633 in 15th subculture in presence of equimolar concentration of ciprofloxacin by double microdilution method; format: functional
Escherichia coli [23] = test: Antibacterial activity against Escherichia coli XL1 blue harboring pET9d encode for APH(3')-1a resistance enzyme by double microdilution method; format: functional
Escherichia coli [24] = test: Antibacterial activity against Escherichia coli BL21 by double microdilution method; format: functional

O=C(O)c1cn(C2CC2)c2cc(N3CCNCC3)c(F)cc2c1=O [CIPROFLOXACIN]
IC50 ([1]; read-out: IC50): 8.6 µM | Activity (Bacillus spizizenii [2]): Active | MIC [3]: 0.094 µg/mL (≈ 0.284 µM) | IC50 (Escherichia coli [4]): Not Active | IC50 ([5]; read-out: IC50): 1.3 µM | MIC (Escherichia coli [6]): < 0.005 µg/mL | MIC (Bacillus subtilis): 0.02 µg/mL (≈ 0.0604 µM)

NC[C@H]1O[C@H](O[C@H]2[C@H](O)[C@@H](O[C@H]3O[C@H](CO)[C@@H](O)[C@H](N)[C@H]3O)[C@H](N)C[C@@H]2N)[C@H](O)[C@@H](O)[C@@H]1O [KANAMYCIN]
Ratio (Escherichia coli [7]): >32 | Ratio (Escherichia coli [8]): >32 | MIC (Escherichia coli [9]): 48 µg/mL (≈ 99.1 µM) | Ratio (Escherichia coli [10]): 15 | Activity (Escherichia coli [11]): inactive | IC50 [1]: Not Active | MIC (Escherichia coli [12]): > 384 µg/mL | MIC [3]: 1.5 µg/mL (≈ 3.1 µM) | Ratio (Escherichia coli [13]): >32 | MIC (Escherichia coli [14]): > 384 µg/mL | MIC (Escherichia coli [15]): 12 µg/mL (≈ 24.8 µM) | IC50 (Escherichia coli [4]; Escherichia coli, 1 h, read-out: IC50): 0.03 µM | LD50 at 96 h [16]: 280 mg/kg | MIC (Escherichia coli [17]): > 384 µg/mL | IC50 [5]: Not Active | MIC (Escherichia coli [18]): 384 µg/mL (≈ 793 µM) | Ratio (Escherichia coli [19]): >128 | MIC (Escherichia coli [6]): 96 µg/mL (≈ 198 µM) | MIC (Bacillus subtilis): 1.5 µg/mL (≈ 3.1 µM) | MIC (Escherichia coli [20]): 3 µg/mL (≈ 6.19 µM) | Ratio (Bacillus spizizenii [21]): 15 | Activity (Bacillus spizizenii [22]): Active | MIC (Escherichia coli [23]): > 384 µg/mL | MIC (Escherichia coli [24]): 12 µg/mL (≈ 24.8 µM)
